# Results as given in US6495678B1, “Immunosuppressant containing glucopyranose derivative as active ingredient” (Ono Pharmaceutical Co., Ltd., priority 1998, dated 2002).
# Several values for one entry are separate records, joined by “and”; a condition that tells them apart may be missing. Equal entries are not always repeated. Marks after values point to notes of the source that are not given here.
# Assays:
# [1] = tested on: Compound 48/80-induced scratching behavior; assay: Mouse Compound 48/80-induced itch model; type: in vivo; conditions: for The number of times of scratching: 20 minutes after injection of Compound 48/80
# Description: This test was carried out in accordance with the method of Kubo et al. (Michinori Kubo, Hideaki Matsuda, Takeshi Itadaki, Yasuko Ido and Masayuki Yoshikawa, Studies on herb medicine and jifushi (first report), Anti-itching activity of 70% ethanol extract of jifushi and screening of effective component, Journal of the Pharmaceutical Society of Japan, 117(4), 193-201, 1997). Specifically, 0.1 ml of physiological saline containing Compound 48/80 (manufactured by Sigma Chemical Company) (100 μg) was administered subcutaneously into the dorsal part of each male ddy mouse of 6 to 7 weeks of age to induce scratching behavior. The scratching behavior was judged by measuring the number of times of scratching for 20 minutes immediately after the injection, by setting the behavior of each mouse to scratch the injected part with a hind leg for 1 second or more as one. Each compound to be tested was administered intravenously 1 hour before the induction.
# [2] = tested on: IL-4 production by spleen cells; assay: In vitro OVA-stimulated IL-4 production by spleen cells from OVA-sensitized mice; type: cell-based, mouse; conditions: for Amount of IL-4: Table 16, OVA-stimulated IL-4 production, spleen cells, 96 hours, ELISA
# Description: (§1) OVA-sensitized animals were prepared in accordance with the method of Nagai et al. (the method described in Example 2). Specifically, 0.5 ml of physiological saline containing 50 μg of OVA and 1 mg of aluminum hydroxide gel as adjuvant was injected twice at 12 day interval into the abdominal cavity of each of male Balb/c mice of 7 weeks of age for active sensitization. After 22, 26 and 30 days of the initial sensitization, each animal was forced to inhale 1% OVA solution for 30 minutes using an ultrasonic nebulizer. After 8 hours of the final antigen inhalation, the spleen was collected to prepare spleen cells. The spleen cells were cultured for 96 hours in the presence of 1 mg/ml of OVA, and the cytokine released in the culture supernatant was determined by ELISA method. Each of the compounds to be tested was added to a final concentration of 0.3, 1, 3, 10 or 30 μM simultaneously with OVA.
# [3] = tested on: DNFB-induced mouse ear edema; assay: DNFB-induced mouse ear edema; type: in vivo; conditions: for Increasing ratio of auricle thickness: 1 hour after reaction induction
# Description: Anti-DNP-IgE antibody (3 μg/body) was administered from the caudal vein of each of female Balb/c mice of 7 weeks of age, and the reaction was induced by applying 25 μl of a 0.15% DNFB-containing acetone:olive oil (3:1) mixed solution (hereinafter referred to as “antigen”) to each of both sides of the left and right auricles 24 hours after the administration. Each compound to be tested was administered orally or intravenously 1 hour before the reaction induction. Before the reaction induction and 1 hour after the reaction induction, auricle thickness was measured using a dial sickness gage, and the average value of the left and right auricle thicknesses was used as the measured value at respective time. The value was shown by the increasing ratio of the auricle thickness from before the reaction induction. In Table 9, treatments in each group are as follows.
# Vehicle: anti-DNP-IgE antibody administration+vehicle application+vehicle administration
# Control: anti-DNP-IgE antibody administration+antigen application+vehicle administration
# Compound (1): anti-DNP-IgE antibody administration+antigen application+Compound (1) administration
# [4] = tested on: eosinophils infiltration in BALF; assay: BALF eosinophils infiltration in mouse allergic airway inflammation model; type: in vivo
# Description: (§2) The test was carried out in accordance with the method of Nagai et al. (see H. Nagai, H. Takeda, S. Yamaguchi, H. Tanaka, A. Matsuo and N. Inagaki, “The effect of thromboxane A2 receptor antagonist BAY-u-3405 on experimental allergic reactions”, Prostaglandins, 50, 75-87, 1995). Specifically, 0.5 ml of physiological saline containing 50 μg of OVA and 1 mg of aluminum hydroxide gel as adjuvant was injected twice at 12 day interval into the abdominal cavity of each of male Balb/c mice of 7 weeks of age for active sensitization. After 22, 26 and 30 days of the initial sensitization, each animal was forced to inhale 1% OVA solution for 30 minutes using an ultrasonic nebulizer to prepare a mouse allergic airway inflammation model. Total blood and BALF were collected 8 hours after the final antigen inhalation. The collected blood was allowed to stand overnight at room temperature, and then centrifuged at 300 rpm for 15 minutes, and the light yellow transparent fraction separated into the supematant was used as an antiserum. The IgE antibody titer in the antiserum was measured by 24 hours' heterogeneous (rat) PCA. On the other hand, the collected BALF supernatant was used as a sample for cytokine measurement, and the cell pellets after preparation were counted as an index of the infiltration of inflammatory cells. Each compound to be tested was continuously administered 5 days starting from the day before each sensitization and 10 days starting from the day before inhalation, at a dose of 10, 30 or 100 mg/kg in the case of oral administration or 10 mg/kg in the case of intraperitoneal or intravenous injection. Results of the measurement of IgE antibody titer in serum and amount of IL-5 and the number of eosinophils in BALF are shown in Tables 10, 11 and 12, respectively. The treatments in each group shown in each table are as follows.
# (§3) Physiological saline: physiological saline stimulation+vehicle administration
# (§4) Control: OVA stimulation+vehicle administration
# (§5) Compound (1): OVA stimulation+Compound (1) administration
# [5] = tested on: IL-2 production by spleen cells; assay: In vitro OVA-stimulated IL-2 production by spleen cells from OVA-sensitized mice; type: cell-based, mouse; conditions: for Amount of IL-2: spleen cells, 1 mg/ml OVA, 96 hours, ELISA
# Description: as §1
# [6] = tested on: SD rats; assay: Acute toxicity LD50, intravenous injection; type: in vivo, rat
# Description: The toxicity of the compounds of the present invention of the formula (I) is very low and therefore, the compounds may be considered safe for pharmaceutical use. For example, LD50 of 2-deoxy-2-[3S-(9-phenylnonanoyloxy)tetradecanoyl]-amino-3-O-(9-phenylnonanoyl)-4-O-sulfo-D-glucopyranose sodium salt (The compound (1) described hereinafter) is 60-70 mg/kg on SD rats were administrated by intravenous injection.
# [7] = tested on: IgE antibody production; assay: Serum IgE antibody production in mouse allergic airway inflammation model; type: in vivo; conditions: 24 hours' heterogeneous (rat) PCA
# Description: as §2, §3, §4, §5
# [8] = tested on: IL-5 production in BALF; assay: BALF IL-5 production in mouse allergic airway inflammation model; type: in vivo
# Description: as §2, §3, §4, §5
# [9] = tested on: IFN-γ production by spleen cells; assay: In vitro OVA-stimulated IFN-γ production by spleen cells from OVA-sensitized mice; type: cell-based, mouse; conditions: for Amount of IFN-γ: Table 15, OVA-stimulated IFN-γ production, spleen cells, 96 hours, ELISA
# Description: as §1
# [10] = 0.3 to 30 μM, spleen cells from OVA-sensitized mice
compound,measurement,setting,value
"CCCCCCCCCCC[C@@H](CC(=O)N[C@H]1C(O)O[C@H](CO)[C@@H](OS(=O)(=O)[O-])[C@@H]1OC(=O)CCCCCCCCc1ccccc1)OC(=O)CCCCCCCCc1ccccc1.[Na+] (stereo partly drawn) [Compound (1), 2-deoxy-2-[3S-(9-phenylnonanoyloxy)tetradecanoyl]amino-3-O-(9-phenylnonanoyl)-4-O-sulfo-D-glucopyranose sodium]",The number of times of scratching,[1]; 1 mg/kg intravenously,68.6 ± 18.8
same,The number of times of scratching,[1]; 3 mg/kg intravenously,61.3 ± 9.9
same,The number of times of scratching,[1]; 10 mg/kg intravenously,26.8 ± 16.8
same,The number of times of scratching,[1]; 30 mg/kg intravenously,6.3 ± 4.4
same,Effect on scratching behavior,[1]; 10 or 30 mg/kg intravenously,significantly reduced scratching behavior
same,Effect on in vitro OVA-stimulated IL-4 production,"[2]; 3 to 30 μM, spleen cells from OVA-sensitized mice",significantly inhibited
same,Amount of IL-4,[2]; 0.3 μM,253.0 ± 45.9 pg/mL
same,Amount of IL-4,[2]; 1 μM,203.3 ± 37.3 pg/mL
same,Amount of IL-4,[2]; 3 μM,139.0 ± 19.3 pg/mL
same,Amount of IL-4,[2]; 10 μM,67.9 ± 8.1 pg/mL
same,Amount of IL-4,[2]; 30 μM,12.8 ± 1.1 pg/mL
same,Increasing ratio of auricle thickness,[3]; 10 mg/kg i.v.,16.4 ± 1.9%
same,Increasing ratio of auricle thickness,[3]; 10 mg/kg p.o.,14.3 ± 1.8%
same,Inhibition of increase in the auricle thickness,"[3]; 40 mg/kg oral administration, versus control",45%
same,Increasing ratio of auricle thickness,[3]; 40 mg/kg p.o.,10.2% and 10.2 ± 1.6 %
same,The number of eosinophils in BALF,[4]; 10 mg/kg i.p.,0.0 ± 0.0*^b × 10^5 cells/BALF
same,The number of eosinophils in BALF,[4]; 10 mg/kg i.v.,0.1 ± 0.0*^b × 10^5 cells/BALF
same,The number of eosinophils in BALF,[4]; 10 mg/kg p.o.,1.4 ± 0.4 × 10^5 cells/BALF
same,The number of eosinophils in BALF,[4]; 30 mg/kg p.o.,0.7 ± 0.2 × 10^5 cells/BALF
same,The number of eosinophils in BALF,[4]; 100 mg/kg p.o.,0.3 ± 0.1 × 10^5 cells/BALF
same,Amount of IL-2,[5]; 0.3 μM,48.4 ± 3.0 pg/mL
same,Amount of IL-2,[5]; 1 μM,36.1 ± 5.0 pg/mL
same,Amount of IL-2,[5]; 3 μM,22.9 ± 2.9 pg/mL
same,Amount of IL-2,[5]; 10 μM,11.7 ± 2.2 pg/mL
same,Amount of IL-2,[5]; 30 μM,4.3 ± 1.7 pg/mL
same,Effect on in vitro OVA-stimulated IL-2 production,[5]; [10],significantly inhibited
same,LD50,[6],60 to 70 mg/kg
same,Serum IgE antibody titer,[7]; 10 mg/kg i.p.,69.3 ± 17.6***^b
same,Serum IgE antibody titer,[7]; 10 mg/kg i.v.,20.0 ± 3.7***^b
same,Serum IgE antibody titer,[7]; 10 mg/kg p.o.,304.0 ± 68.2
same,Serum IgE antibody titer,[7]; 30 mg/kg p.o.,176.0 ± 35.2
same,Serum IgE antibody titer,[7]; 100 mg/kg p.o.,120.0 ± 30.1
same,Amount of IL-5 in BALF,[8]; 10 mg/kg i.p.,9.2 ± 1.5**^b pg/BALF
same,Amount of IL-5 in BALF,[8]; 10 mg/kg i.v.,16.2 ± 3.8**^b pg/BALF
same,Amount of IL-5 in BALF,[8]; 10 mg/kg p.o.,65.1 ± 15.9 pg/BALF
same,Amount of IL-5 in BALF,[8]; 30 mg/kg p.o.,50.8 ± 13.7 pg/BALF
same,Amount of IL-5 in BALF,[8]; 100 mg/kg p.o.,26.7 ± 7.5 pg/BALF
same,Effect on in vitro OVA-stimulated IFN-γ production,[9]; [10],significantly inhibited
same,Amount of IFN-γ,[9]; 0.3 μM,1462.9 ± 202.8 pg/mL
same,Amount of IFN-γ,[9]; 1 μM,658.1 ± 66.6 pg/mL
same,Amount of IFN-γ,[9]; 3 μM,457.6 ± 51.0 pg/mL
same,Amount of IFN-γ,[9]; 10 μM,349.7 ± 81.0 pg/mL
same,Amount of IFN-γ,[9]; 30 μM,160.5 ± 42.9 pg/mL
